According to patent US20260053931A1, “MDM2 TARGETING PROTACS” (THE WISTAR INSTITUTE OF ANATOMY AND BIOLOGY, priority 2023, published 2026):

Experiments:
[1] = test system: MDA-MB-231 and MDA-MB-436 cells; experiment: Colony formation assay; format: cell-based, human; set-up: unit of the concentration uncertain; conditions: 12 days
Method: FIGS. 21A-21E show the apoptosis induction of p53-inactivated TNBC cells in 2D and 3D cultures by the MDM2-PROTAC YX-02-030. A-B. Colony formation assays (A. Triplicate, 12 days) and mammosphere formation (B. Triplicate 72 hrs) of MDA-MB-231 and MDA-MB-436 cells in the presence of the indicated compounds or DMSO control (−); representative pictures shown. C-E. Formed mammospheres of MDA-MB-231 and MDA-MB-436 cells were treated with the compounds indicated or DMSO control (−), and area (C. n=10 mammospheres, relative to pre-treatment area, 72 hr), real-time imaging (IncuCyte) and quantification of Caspase-3/7 activity (D. n=4-5 wells/compound), and survival/ATP assays (E. Quadruplicate, 72 hr) were performed; representative images shown; scale bar 300 m. Mean±SEM (A-C and E). For A, *P<0.0001 and **P<0.0001, comparing 1 M and 2 M PROTAC, respectively, to control compounds and DMSO vehicle control. For B, *P<0.0046, **P<0.0001, and ***P<0.0001, comparing 0.5 M, 1 M, and 2 M PROTAC, respectively, to control compounds and DMSO vehicle control. For C, *P<0.0001 and **P<0.0001, comparing 2 M and 4 M/6 M PROTAC, respectively, to control compounds and DMSO vehicle control. […]
The ability of the PROTAC-mediated degradation of MDM2 to alter the clonogenic potential of p53-inactivated TNBC cells was evaluated by performing colony formation assays with MDA-MB-231 and MDA-MB-436 cells. […]

[2] = Mouse liver microsomal stability; format: in vitro ADME; conditions: mouse liver microsomes, 0.5 μM compound
Method: To translate cell-based activity to in vivo efficacy, the Mdm2 PROTACs were evaluated for metabolic stability and plasma compound levels after IP injection in the mouse. Mouse liver microsome stability was obtained for lead compounds (Alliance Pharma, Inc; Malvern PA) as a predictive measure for suitable exposure in a mouse pharmacokinetic study. In brief, test compounds (0.5 μM) are incubated with liver microsomes ([…]) and an NADPH-regenerating system (cofactor solution) and samples are taken at various timepoints, quenched with an acetonitrile solution containing an internal standard, then analyzed by LC-MS/MS. […] Mouse pharmacokinetic studies for YX-02-030 and YX-02-288 were completed. Mouse plasma levels were evaluated following intraperitoneal (10 mg/kg) administration. Plasma was collected at timepoints 0.25 h, 0.5 h, 1 h, 2 h, 4 h and 6 h after Mdm2 PROTAC injection. Plasma was deproteinized and analyzed for compound using LC-MS/MS methods. Three mice were used for each time point and one control animal (Alliance Pharma Inc, Malvern PA).

OVCAR3 = experiment: Cell death of other cancer cell lines: OVCAR3; format: cell-based; conditions: Homo sapiens, OVCAR-3; OVCAR3, Ovarian
Method: The PROTACs prepared herein were tested for their use in other cancer cell lines to determine activity in multiple different types of cancer.

CCOc1cc(C(C)(C)C)ccc1C1=N[C@](C)(c2ccc(Cl)cc2)[C@](C)(c2ccc(Cl)cc2)N1C(=O)N1CCN(CC(=O)NCCOCCOCCOCC(=O)N[C@H](C(=O)N2C[C@H](O)C[C@H]2C(=O)NCc2ccc(-c3scnc3C)cc2)C(C)(C)C)CC1 (racemic) [YX-02-030]
colony numbers ([1]; 1 (unit uncertain)): significant reduction in colony numbers
colonies formed ([1]; 2 (unit uncertain)): < 2 colonies
half-life at 0.5 μM [2]: 25.9 min
IC50 (OVCAR3): 4.5 µM
